From US11242337B2, “Compounds useful for treating gastrointestinal tract disorders” (Ardelyx, Inc., priority 2017, dated 2022)
Structures can show the parent of a compound that is named as a salt.

Experiments:
[1] = molecular target: T1, NHE3 (Homo sapiens, UniProt P48764); experiment: Cell-based assay of NHE-3 activity (pre-incubation inhibition), human; conditions: human Preincubation; for IC50 / pIC50: 0-30 μM test compound
T1 construct: expressed in transfected cells
T1 sequence (P48764 26-834): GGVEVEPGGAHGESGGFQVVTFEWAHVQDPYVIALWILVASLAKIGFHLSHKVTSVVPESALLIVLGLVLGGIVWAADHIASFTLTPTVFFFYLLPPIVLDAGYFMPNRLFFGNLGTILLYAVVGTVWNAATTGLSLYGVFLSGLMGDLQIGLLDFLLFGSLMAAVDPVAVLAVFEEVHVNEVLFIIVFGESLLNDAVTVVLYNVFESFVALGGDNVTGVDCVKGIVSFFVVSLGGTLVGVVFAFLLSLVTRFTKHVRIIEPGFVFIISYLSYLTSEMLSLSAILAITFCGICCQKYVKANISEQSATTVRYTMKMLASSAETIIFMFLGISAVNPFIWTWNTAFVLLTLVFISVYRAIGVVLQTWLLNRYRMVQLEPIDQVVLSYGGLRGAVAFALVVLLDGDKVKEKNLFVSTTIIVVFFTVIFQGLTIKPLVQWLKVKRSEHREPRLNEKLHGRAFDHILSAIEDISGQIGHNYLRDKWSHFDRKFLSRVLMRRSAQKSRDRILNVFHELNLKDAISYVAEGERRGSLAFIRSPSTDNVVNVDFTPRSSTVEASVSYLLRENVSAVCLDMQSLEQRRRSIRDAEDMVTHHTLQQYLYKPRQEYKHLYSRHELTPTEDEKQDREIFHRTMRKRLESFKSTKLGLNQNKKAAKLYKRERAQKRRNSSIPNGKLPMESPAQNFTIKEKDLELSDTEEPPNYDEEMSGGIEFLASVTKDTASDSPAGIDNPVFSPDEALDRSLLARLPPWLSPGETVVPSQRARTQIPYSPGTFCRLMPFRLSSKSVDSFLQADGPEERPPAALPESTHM
T1 sequence (Q99653 2-195 partner limits assumed): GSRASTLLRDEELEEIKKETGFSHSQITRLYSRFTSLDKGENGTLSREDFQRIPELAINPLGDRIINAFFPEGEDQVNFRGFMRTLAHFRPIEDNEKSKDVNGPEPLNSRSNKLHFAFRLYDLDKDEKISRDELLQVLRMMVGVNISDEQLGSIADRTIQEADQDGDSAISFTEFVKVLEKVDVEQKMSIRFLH
How it was run: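 Activity read as initial rate of BCECF fluorescence ratio change per minute (ex 439/505, em 538 nm) following NH4Cl prepulse acid loading. Compound (0–30 μM) present during 10 min Na+-free acidification at room temperature; cells were PS120 fibroblasts stably co-expressing human NHE3 and NHERF2.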

[2] = molecular target: T1, NHE3; experiment: Cell-based assay of NHE-3 activity (persistent inhibition), human; conditions: human Persistence, 60 min incubation then washout
How it was run: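 Persistent inhibition: compound (0-30 μM, 60 min, RT, NaCl-HEPES pH 7.4) removed before assay. Human NHE3/NHERF2 PS120 cells were then BCECF-loaded during NH4Cl pulse (30 min, 37 °C), acidified in Na+-free buffer, and Na+ added 10 min after washout; antiport measured as initial fluorescence-ratio change per minute.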

Structure (SMILES)	% inhibition [1]	IC50 [1]	% inhibition [2]	IC50 [2]	pIC50 [1]	pIC50 [2]
CC(=O)N1CCN([C@H]2Cc3c(Cl)cc(Cl)cc3[C@@H]2Oc2ccc(S(=O)(=O)NCCOCCOCCNC(=O)NCCCCNC(=O)NCCOCCOCCNS(=O)(=O)c3ccc(O[C@H]4c5cc(Cl)cc(Cl)c5C[C@@H]4N4CCN(C(C)=O)CC4)c(C)c3)cc2C)CC1 [Example 75, 3-[2-(2-[2-[(4-[[(1S,2S)-2-(4-Acetylpiperazin-1-yl)-4,6-dichloro-2,3-dihydro-1H-inden-1-yl]oxy]-3-methylbenzene)sulfonamido]ethoxy]ethoxy)ethyl]-1-[4-([[2-(2-[2-[(4-[[(1S,2S)-2-(4-acetylpiperazin-1-yl)-4,6-dichloro-2,3-dihydro-1H-inden-1-yl]oxy]-3-methylbenzene)sulfonamido]ethoxy]ethoxy)ethyl]carbamoyl]amino)butyl]urea; bis(trifluoroacetic acid)]	B (40-70%)	100 to 1000 nM	A (NHE3 < 40%)			
CN(C)C(=O)N1CCN([C@H]2Cc3c(Cl)cc(Cl)cc3[C@@H]2Oc2ccc(S(=O)(=O)NCCOCCOCCNC(=O)NCCCCNC(=O)NCCOCCOCCNS(=O)(=O)c3ccc(O[C@H]4c5cc(Cl)cc(Cl)c5C[C@@H]4N4CCN(C(=O)N(C)C)CC4)cc3)cc2)CC1 [Example 76, 4-[(1S,2S)-4,6-dichloro-1-[4-[(2-[2-[2-([[4-([[2-(2-[2-[4-(4-[[(1S,2S)-4,6-dichloro-2-[4-(dimethylcarbamoyl)piperazin-1-yl]-2,3-dihydro-1H-inden-1-yl]oxy]benzene)sulfonamido]ethoxy]ethoxy)ethyl]carbamoyl]amino)butyl]carbamoyl]amino)ethoxy]ethoxy]ethyl)sulfamoyl]phenoxy]-2,3-dihydro-1H-inden-2-yl]-N,N-dimethylpiperazine-1-carboxamide]	C (>70%)	< 100 nM	A (NHE3 < 40%)	> 1000 nM		
Cc1cc(S(=O)(=O)NCCOCCOCCNC(=O)NCCCCNC(=O)NCCOCCOCCNS(=O)(=O)c2ccc(O[C@H]3c4cc(Cl)cc(Cl)c4C[C@@H]3N3CCN(C(=O)N(C)C)CC3)c(C)c2)ccc1O[C@H]1c2cc(Cl)cc(Cl)c2C[C@@H]1N1CCN(C(=O)N(C)C)CC1 [Example 77, 4-[(1S,2S)-4,6-dichloro-1-[4-[(2-[2-[2-([[4-([[2-(2-[2-[(4-[[(1S,2S)-4,6-dichloro-2-[4-(dimethylcarbamoyl)piperazin-1-yl]-2,3-dihydro-1H-inden-1-yl]oxy]-3-methylbenzene)sulfonamido]ethoxy]ethoxy)ethyl]carbamoyl]amino)butyl]carbamoyl]amino)ethoxy]ethoxy]ethyl)sulfamoyl]-2-methylphenoxy]-2,3-dihydro-1H-inden-2-yl]-N,N-dimethylpiperazine-1-carboxamide; bis(trifluoroacetic acid)]	C (>70%)		A (NHE3 < 40%)		A (NHE3 pIC50 < 6)	A (NHE3 pIC50 < 6)
Cc1cc(S(=O)(=O)NCCOCCOCCNC(=O)NCCCCNC(=O)NCCOCCOCCNS(=O)(=O)c2cc(C)c(O[C@H]3c4cc(Cl)cc(Cl)c4C[C@@H]3N3CCC[C@@H](N)C3)c(C)c2)cc(C)c1O[C@H]1c2cc(Cl)cc(Cl)c2C[C@@H]1N1CCC[C@@H](N)C1 [Example 79, 3-[2-(2-[2-[(4-[[(1S,2S)-2-[(3R)-3-Aminopiperidin-1-yl]-4,6-dichloro-2,3-dihydro-1H-inden-1-yl]oxy]-3,5-dimethylbenzene)sulfonamido]ethoxy]ethoxy)ethyl]-1-[4-([[2-(2-[2-[(4-[[(1S,2S)-2-[(3R)-3-aminopiperidin-1-yl]-4,6-dichloro-2,3-dihydro-1H-inden-1-yl]oxy]3,5-dimethylbenzene)sulfonamido]ethoxy]ethoxy)ethyl]carbamoyl]amino)butyl]urea; hydrochloride]	C (>70%)		C (>70%)	100 to 1000 nM		
Cc1cc(S(=O)(=O)NCCOCCOCCNC(=O)NCCCCNC(=O)NCCOCCOCCNS(=O)(=O)c2cc(C)c(O[C@H]3c4cc(Cl)cc(Cl)c4C[C@@H]3N(C)C)c(C)c2)cc(C)c1O[C@H]1c2cc(Cl)cc(Cl)c2C[C@@H]1N(C)C [Example 80]	B (40-70%)	100 to 1000 nM	B (40-70%)	100 to 1000 nM		
Cc1cc(S(=O)(=O)NCCOCCOCCNC(=O)NCCCCNC(=O)NCCOCCOCCNS(=O)(=O)c2cc(C)c(O[C@H]3c4cc(Cl)cc(Cl)c4C[C@@H]3N3CCC[C@@H](N)C3)cc2C)c(C)cc1O[C@H]1c2cc(Cl)cc(Cl)c2C[C@@H]1N1CCC[C@@H](N)C1 [Example 81, 3-[2-(2-[2-[(4-[[(1S,2S)-2-[(3R)-3-Aminopiperidin-1-yl]-4,6-dichloro-2,3-dihydro-1H-inden-1-yl]oxy]-2,5-dimethylbenzene)sulfonamido]ethoxy]ethoxy)ethyl]-1-[4-([[2-(2-[2-[(4-[[(1S,2S)-2-[(3R)-3-aminopiperidin-1-yl]-4,6-dichloro-2,3-dihydro-1H-inden-1-yl]oxy]-2,5-dimethylbenzene)sulfonamido]ethoxy]ethoxy)ethyl]carbamoyl]amino)butyl]urea]	C (>70%)		C (>70%)	100 to 1000 nM	C (NHE3 pIC50 > 7)	
Cc1cc(S(=O)(=O)NCCOCCOCCNC(=O)NCCCCNC(=O)NCCOCCOCCNS(=O)(=O)c2cc(C)c(O[C@H]3c4cc(Cl)cc(Cl)c4C[C@@H]3N(C)C)cc2C)c(C)cc1O[C@H]1c2cc(Cl)cc(Cl)c2C[C@@H]1N(C)C [Example 82, 3-[2-(2-[2-[(4-[[(1S,2S)-4,6-Dichloro-2-(dimethylamino)-2,3-dihydro-1H-inden-1-yl]oxy]-2,5-dimethylbenzene)sulfonamido]ethoxy]ethoxy)ethyl]-[4-([[2-(2-[2-[(4-[[(1S,2S)-4,6-dichloro-2-(dimethylamino)-2,3-dihydro-1H-inden-1-yl]oxy]-2,5-dimethylbenzene)sulfonamido]ethoxy]ethoxy)ethyl]carbamoyl]amino)butyl]urea]	B (40-70%)		C (>70%)	100 to 1000 nM	C (NHE3 pIC50 > 7)	
Cc1cc(S(=O)(=O)NCCOCCOCCNC(=O)NCCCCNC(=O)NCCOCCOCCNS(=O)(=O)c2cc(C)c(O[C@H]3c4cc(Cl)cc(Cl)c4C[C@@H]3N3CCC[C@@H](N)C3)c(F)c2)cc(F)c1O[C@H]1c2cc(Cl)cc(Cl)c2C[C@@H]1N1CCC[C@@H](N)C1 [Example 83, 1-[2-(2-[2-[(4-[[(1S,2S)-2-[(3R)-3-Aminopiperidin-1-yl]-4,6-dichloro-2,3-dihydro-1H-inden-1-yl]oxy]-3-fluoro-5-methylbenzene)sulfonamido]ethoxy]ethoxy)ethyl]-3-[4-([[2-(2-[2-[(4-[[(1S,2S)-2-[(3R)-3-aminopiperidin-1-yl]-4,6-dichloro-2,3-dihydro-1H-inden-1-yl]oxy]-3-fluoro-5-methylbenzene)sulfonamido]ethoxy]ethoxy)ethyl]carbamoyl]amino)butyl]urea; hydrochloride]	C (>70%)		C (>70%)	100 to 1000 nM	C (NHE3 pIC50 > 7)	
Cc1cc(S(=O)(=O)NCCOCCOCCNC(=O)NCCCCNC(=O)NCCOCCOCCNS(=O)(=O)c2cc(C)c(O[C@H]3c4cc(Cl)cc(Cl)c4C[C@@H]3N(C)C)c(F)c2)cc(F)c1O[C@H]1c2cc(Cl)cc(Cl)c2C[C@@H]1N(C)C [Example 84, 1-[2-(2-[2-[(4-[[(1S,2S)-4,6-Dichloro-2-(dimethylamino)-2,3-dihydro-1H-inden-1-yl]oxy]-3-fluoro-5-methylbenzene)sulfonamido]ethoxy]ethoxy)ethyl]-3-[4-([[2-(2-[2-[(4-[[(1S,2S)-4,6-dichloro-2-(dimethylamino)-2,3-dihydro-1H-inden-1-yl]oxy]-3-fluoro-5-methylbenzene)sulfonamido]ethoxy]ethoxy)ethyl]carbamoyl]amino)butyl]urea]	C (>70%)		C (>70%)		C (NHE3 pIC50 > 7)	C (NHE3 pIC50 > 7)
